From ChEMBL document CHEMBL1201862, “PubChem BioAssay data set” (2004) come the findings set out here.

Each structure is given as a SMILES string.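 Where inhibition never reached the appropriate level, the endpoint shown equals the highest concentration tested. Otherwise, values were interpolated linearly from a five-concentration, 48-hour dose response in 96-well plates. Abbreviation: GI50, concentration required for 50% inhibition of growth.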 The source made the active and inactive calls. Cut-off read from the data, not from the text of the source: active = GI50 up to about 1.1 µM and inactive = higher. Bounds are passed on as bounds.

Assay in all cases: inhibition of tumour cell growth, NCI panel, 48 h
Experiment [1] relates to IGROV-1.
In experiment [2] the test system is MOLT-4.
Experiment [3] concerns HL-60.
Experiment [4] deals with COLO 205.
Experiment [5] concerns NCI-H23.
The test system of experiment [6] is SK-MEL-28.
For experiment [7], the system named is RXF 393.
In experiment [8] the test system is MDA-N.
Experiment [9] deals with A549.
Experiment [10] deals with OVCAR-3.
The test system of experiment [11] is PC-3.
Experiment [12] deals with K562.
Experiment [13] has as its system HOP-62.
Experiment [14] deals with SF-268.
Experiment [15] relates to DU-145.
Experiment [16] has as its system UO-31.
For experiment [17], the system named is OVCAR-4.
Experiment [18] concerns KM12.
The subject of experiment [19] is SK-OV-3.
Experiment [20] concerns U-251.

Take `O=C1C(N2CCN(CCOCCO)CC2)=C(Cl)C(=O)c2ncccc21`: the GI50 in experiment [1] was 16.9 µM (inactive); in [2] it was 2.37 µM (inactive); in experiment [3] it was 3.06 µM (inactive); in experiment [4], 8.28 µM (inactive); in experiment [5], 20.3 µM (inactive); in experiment [6], 22.2 µM (inactive). In addition, the GI50 in experiment [7] was 20 µM (inactive); in experiment [8] it was 1.97 µM (inactive); in experiment [9], > 10 µM (inactive); in experiment [10], 18.5 µM (inactive); in experiment [11], 20.7 µM (inactive); in experiment [12], 3.2 µM (inactive). Further, the GI50 in experiment [13] is > 10 µM (inactive); in experiment [14] it was 20.6 µM (inactive); in experiment [15], 52.7 µM (inactive); in experiment [16], 17.7 µM (inactive); in experiment [17], 20.3 µM (inactive); in experiment [18], > 10 µM (inactive). The figures for the GI50 in experiment [19] and in experiment [20] were > 10 µM (inactive) and 18.7 µM (inactive), respectively.

With `O=C(Nc1ccccc1)N(CCN(Cc1ccccc1)C(=O)Nc1ccccc1)CCN(Nc1ccccc1)C(=O)Nc1ccccc1`, the GI50 in experiment [1], in [2], in [3], in experiment [4], in experiment [5] and in experiment [6] was > 100 µM (inactive) in each case. Further, the GI50 in experiment [7], in experiment [8], in experiment [9], in experiment [10], in experiment [11] and in experiment [12] was > 100 µM (inactive) in each case. Also, the GI50 in experiment [13], in experiment [14], in [15], in experiment [16], in experiment [17] and in experiment [18] was > 100 µM (inactive) each time. The GI50 in experiment [19] and in experiment [20] was > 100 µM (inactive) throughout.

With `Cn1c(=O)c2c(nc(NCCCCl)n2CC(=O)O)n(C)c1=O`, the GI50 is > 100 µM (inactive) in experiment [1]; 2.74 µM (inactive) in experiment [2]; > 100 µM (inactive) in [3]; > 100 µM (inactive) in experiment [4]; > 100 µM (inactive) in experiment [5]; > 100 µM (inactive) in [6]. The GI50 in experiment [7], in [8], in experiment [9], in [10], in [11] and in experiment [12] was > 100 µM (inactive) throughout. Also, the GI50 in experiment [13], in experiment [14], in experiment [15], in [16], in experiment [17] and in experiment [18] was > 100 µM (inactive) throughout. The GI50 in experiment [19] and in [20] was > 100 µM (inactive) in each case.

With `N#CC(C#N)=C/C=C/c1c(Cl)cccc1Cl`, the GI50 in experiment [1] is 2.16 µM (inactive); in experiment [2], 1.88 µM (inactive); in experiment [3] it was 0.698 µM (active); in experiment [4] it was 1.73 µM (inactive); in experiment [5], 1.47 µM (inactive); in [6] it was 1.64 µM (inactive). Besides, the GI50 in experiment [7] was 1.58 µM (inactive); in experiment [8], 1.62 µM (inactive); in experiment [9] it was 2.75 µM (inactive); in experiment [10], 2.13 µM (inactive); in experiment [11], 1.81 µM (inactive); in experiment [12], 2.55 µM (inactive). Moreover, the GI50 was 2.74 µM (inactive) in experiment [13]; 1.92 µM (inactive) in experiment [14]; 1.71 µM (inactive) in experiment [15]; 1.84 µM (inactive) in experiment [16]; 1.72 µM (inactive) in experiment [17]; 1.58 µM (inactive) in [18]. Also, the values for the GI50 in experiment [19] and in [20] were 2.56 µM (inactive) and 1.81 µM (inactive), respectively.

As for `C/C=C/C(O)P(=O)(OC)OC` (stereo not given), the GI50 was 0.275 µM (active) in experiment [1]; 0.3 µM (active) in experiment [2]; 0.256 µM (active) in experiment [3]; 0.184 µM (active) in experiment [4]; 0.307 µM (active) in experiment [5]; 0.32 µM (active) in [6]. For the same compound, the GI50 is 0.215 µM (active) in experiment [7]; 0.217 µM (active) in experiment [8]; 0.274 µM (active) in experiment [9]; 0.255 µM (active) in [10]; 0.407 µM (active) in experiment [11]; 0.318 µM (active) in experiment [12]. The GI50 is 0.628 µM (active) in experiment [13]; 0.263 µM (active) in experiment [14]; 0.34 µM (active) in experiment [15]; 0.164 µM (active) in experiment [16]; 0.335 µM (active) in experiment [17]; 0.278 µM (active) in experiment [18]. Moreover, the GI50 in experiment [19] was 1.03 µM (active); in experiment [20] it was 0.307 µM (active).

For `c1cc(-c2ccc(Oc3ccc(-c4ccncc4)cc3)cc2)ccn1`, the GI50 in experiment [1] is 7.4 µM (inactive); in [2], 2.99 µM (inactive); in [3], 2.18 µM (inactive); in experiment [4] it was 3.56 µM (inactive); in [5], 3.18 µM (inactive); in experiment [6], > 26.7 µM (inactive). For the same compound, the GI50 is 25.6 µM (inactive) in experiment [7]; 2.39 µM (inactive) in experiment [8]; 4.91 µM (inactive) in [9]; 6.14 µM (inactive) in experiment [10]; 27 µM (inactive) in experiment [11]; 2.5 µM (inactive) in experiment [12]. In addition, the GI50 in experiment [13] was 23.6 µM (inactive); in [14] it was 22.6 µM (inactive); in experiment [15], 11.4 µM (inactive); in experiment [16] it was 7.21 µM (inactive); in experiment [17], 5.47 µM (inactive); in [18], 5.22 µM (inactive). The GI50 in experiment [19] was 15.3 µM (inactive); in experiment [20] it was 4.01 µM (inactive).

Turning to `Cn1c2ccccc2c2cc(-c3ccccc3)c3c(c21)C(=O)C=CC3=O`, the GI50 in [1] is 22.8 µM (inactive); in experiment [2], 3.59 µM (inactive); in [3], 4.52 µM (inactive); in experiment [4], 17.5 µM (inactive); in experiment [5], 17.2 µM (inactive); in experiment [6] it was 20.4 µM (inactive). Moreover, the GI50 in experiment [7] is 15.8 µM (inactive); in experiment [8], 19.4 µM (inactive); in [9], 60.1 µM (inactive); in experiment [10], 16.4 µM (inactive); in experiment [11], 18.4 µM (inactive); in [12], 5.31 µM (inactive). Besides, the GI50 in experiment [13] is 28.8 µM (inactive); in experiment [14], 28.4 µM (inactive); in experiment [15] it was 82.8 µM (inactive); in experiment [16], 19.8 µM (inactive); in experiment [17], 18.8 µM (inactive); in experiment [18], 20 µM (inactive). Besides, the figures for the GI50 in experiment [19] and in experiment [20] were > 88.1 µM (inactive) and 18.8 µM (inactive), respectively.

`O=C(O)C1(Cc2ccccc2)Cc2cc3c(cc2C1)CCC3`: the GI50 in experiment [1] is > 100 µM (inactive); in experiment [2], > 100 µM (inactive); in experiment [3], 48.9 µM (inactive); in [4] it was > 100 µM (inactive); in [5], > 100 µM (inactive); in [6] it was > 100 µM (inactive). The GI50 in [7] is > 100 µM (inactive); in experiment [8], > 100 µM (inactive); in [9], 51.4 µM (inactive); in experiment [10], > 100 µM (inactive); in [11], > 100 µM (inactive); in experiment [12] it was 72.9 µM (inactive). The GI50 was 99.3 µM (inactive) in experiment [13]; 78.9 µM (inactive) in experiment [14]; > 100 µM (inactive) in [15]; 95.3 µM (inactive) in [16]; > 100 µM (inactive) in experiment [17]; 68.4 µM (inactive) in experiment [18]. The GI50 is > 100 µM (inactive) in experiment [19] and 66.4 µM (inactive) in experiment [20].

`COC(=O)CCC(C)[C@H]1CCC2C3CC[C@@H]4CC5(CC[C@]4(C)C3C[C@H](OC(C)=O)[C@@]21C)OOC1(CCCCC1)OO5` (stereo not given in full): the GI50 in experiment [1] was 2.12 µM (inactive); in experiment [2], 6.11 µM (inactive); in [3], 2.49 µM (inactive); in experiment [4] it was 6.17 µM (inactive); in experiment [5] it was 9.55 µM (inactive); in experiment [6], 27.7 µM (inactive). Besides, the GI50 in experiment [7] was > 100 µM (inactive); in experiment [8] it was 8.26 µM (inactive); in [9], 9.77 µM (inactive); in experiment [10] it was 15.3 µM (inactive); in experiment [11] it was 6.55 µM (inactive); in experiment [12], 6.01 µM (inactive). Besides, the GI50 in [13] was 8.89 µM (inactive); in [14], 19.7 µM (inactive); in experiment [15], 7.87 µM (inactive); in [16], 2.67 µM (inactive); in [17] it was 4.06 µM (inactive); in [18], 8.85 µM (inactive). For the same compound, the results for the GI50 in experiment [19] and in experiment [20] were > 100 µM (inactive) and 6.62 µM (inactive), respectively.

For `Cc1cc(C)c2c(=O)n(CC(O)CN3CCN(CCOCCO)CC3)sc2n1` (stereo not given), the GI50 in [1] was 43.9 µM (inactive); in experiment [2], 24.5 µM (inactive); in [3], 20.5 µM (inactive); in [4], 17.7 µM (inactive); in experiment [5] it was 15.3 µM (inactive); in experiment [6], 17.2 µM (inactive). Besides, the GI50 in experiment [7] is 4.68 µM (inactive); in experiment [8], 15.6 µM (inactive); in [9], 32.4 µM (inactive); in experiment [10], 22.4 µM (inactive); in experiment [11], 18.7 µM (inactive); in experiment [12] it was 37.3 µM (inactive). Also, the GI50 is 28.4 µM (inactive) in experiment [13]; 20.8 µM (inactive) in experiment [14]; 30.2 µM (inactive) in experiment [15]; 20.7 µM (inactive) in experiment [16]; 17.9 µM (inactive) in experiment [17]; 22 µM (inactive) in [18]. In addition, the figures for the GI50 in experiment [19] and in experiment [20] were 26.4 µM (inactive) and 18.1 µM (inactive), respectively.
